Data as given in US20260166039A1 (SCHRÖDINGER, INC., priority 2022, published 2026).

Target: T1, Wee1 kinase domain (Homo sapiens, UniProt P30291)
T1 construct: Wee1 kinase domain was purchased from Carna (catalog #05-177); purchased Carna 05-177
Assay: Wee1 Kinase Biochemical Assay (ADP-Glo)
Conditions: Wee1 kinase domain, 15 uM ATP, ADP-Glo
Procedure, shortened: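 Carna Wee1 kinase domain at 1 nM, with 15 uM ATP and 2 ng/mL poly(Lys,Tyr 4:1) substrate in 40 mM Tris-HCl, 20 mM MgCl2, 0.1 mg/mL BSA, 2 mM DTT, run 4 h at 25° C. ADP formation read by ADP-Glo luminescence. Percent inhibition normalised to DMSO and saturating-inhibitor controls.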

T1 sequence (P30291 299-569 limits assumed): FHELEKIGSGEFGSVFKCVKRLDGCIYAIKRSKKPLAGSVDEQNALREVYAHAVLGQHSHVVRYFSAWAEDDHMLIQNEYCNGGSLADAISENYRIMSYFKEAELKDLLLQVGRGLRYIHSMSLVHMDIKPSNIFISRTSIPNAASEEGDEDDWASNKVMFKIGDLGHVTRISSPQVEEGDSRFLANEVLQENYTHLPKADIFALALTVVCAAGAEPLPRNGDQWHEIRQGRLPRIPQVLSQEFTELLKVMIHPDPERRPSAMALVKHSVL

IC50	Structure (SMILES)
100 to 1000 nM	CN1CCC(n2cc(Nc3ncc4c(n3)N(c3cccc(N=S(C)(C)=O)n3)[C@H]3CC(C)(C)OC[C@@]43C)cn2)C1 (stereo partly drawn) [Example 195, dimethyl((6-((4bS,8aS)-4b,7,7-trimethyl-2-((1-((R)-1-methylpyrrolidin-3-yl)-1H-pyrazol-4-yl)amino)-4b,7,8,8a-tetrahydropyrano[3′,4′:4,5]pyrrolo[2,3-d]pyrimidin-9(5H)-yl)pyridin-2-yl)imino)-16-sulfanone]
< 10 nM	CC1(C)C[C@H]2N(c3cccc(N=S(C)(C)=O)n3)c3nc(Nc4ccc5nccn5n4)ncc3[C@@]2(C)CO1 [Example 361, ((6-((4bR,8aR)-2-(imidazo[1,2-b]pyridazin-6-ylamino)-4b,7,7-trimethyl-4b,7,8,8a-tetrahydropyrano[3′,4′:4,5]pyrrolo[2,3-d]pyrimidin-9(5H)-yl)pyridin-2-yl)imino)dimethyl-l6-sulfanone]

Same assay, conditions: class symbols; 1 nM Wee1 enzyme, 15 uM ATP, 4 hours at 25° C.

IC50	Structure (SMILES)
10 to 100 nM	CN1CC[C@@H](Oc2ccc(Nc3ncc4c(n3)N(c3cccc(N5CCCC5=O)n3)[C@H]3CC(C)(C)OC[C@@]43C)cc2)C1 [Example 627, 1-(6-((4bS,8aS)-4b,7,7-trimethyl-2-((4-(((R)-1-methylpyrrolidin-3-yl)oxy)phenyl)amino)-4b,7,8,8a-tetrahydropyrano[3′,4′:4,5]pyrrolo[2,3-d]pyrimidin-9(5H)-yl)pyridin-2-yl)pyrrolidin-2-one]
100 to 1000 nM	CN1C[C@@H]2C[C@H]1CN2c1ccc(Nc2ncc3c(n2)N(c2cccc(N4CCCC4=O)n2)[C@H]2CC(C)(C)OC[C@@]32C)cc1 [Example 628, 1-(6-((4bS,8aS)-4b,7,7-trimethyl-2-((4-((1S,4S)-5-methyl-2,5-diazabicyclo[2.2.1]heptan-2-yl)phenyl)amino)-4b,7,8,8a-tetrahydropyrano[3′,4′:4,5]pyrrolo[2,3-d]pyrimidin-9(5H)-yl)pyridin-2-yl)pyrrolidin-2-one]
100 to 1000 nM	CN1C[C@H]2C[C@@H]1CN2c1ccc(Nc2ncc3c(n2)N(c2cccc(N4CCCC4=O)n2)[C@H]2CC(C)(C)OC[C@@]32C)cc1 [Example 630, 1-(6-((4bS,8aS)-4b,7,7-trimethyl-2-((4-((1R,4R)-5-methyl-2,5-diazabicyclo[2.2.1]heptan-2-yl)phenyl)amino)-4b,7,8,8a-tetrahydropyrano[3′,4′:4,5]pyrrolo[2,3-d]pyrimidin-9(5H)-yl)pyridin-2-yl)pyrrolidin-2-one]
10 to 100 nM	CC1(C)C[C@@H]2N(c3cccc(N4CCCC4=O)n3)c3nc(Nc4ccc([C@@H]5CCNC5)cc4)ncc3[C@]2(C)CO1 [Example 633, 1-(6-((4bS,8aS)-4b,7,7-trimethyl-2-((4-((S)-pyrrolidin-3-yl)phenyl)amino)-4b,7,8,8a-tetrahydropyrano[3′,4′:4,5]pyrrolo[2,3-d]pyrimidin-9(5H)-yl)pyridin-2-yl)pyrrolidin-2-one]
10 to 100 nM	CN1CC[C@H](c2ccc(Nc3ncc4c(n3)N(c3cccc(N5CCCC5=O)n3)[C@H]3CC(C)(C)OC[C@@]43C)cc2)C1 [Example 635, 1-(6-((4bS,8aS)-4b,7,7-trimethyl-2-((4-((R)-1-methylpyrrolidin-3-yl)phenyl)amino)-4b,7,8,8a-tetrahydropyrano[3′,4′:4,5]pyrrolo[2,3-d]pyrimidin-9(5H)-yl)pyridin-2-yl)pyrrolidin-2-one]
10 to 100 nM	CC1(C)C[C@@H]2N(c3cccc(N4CCCC4=O)n3)c3nc(Nc4ccc([C@H]5CCNC5)cc4)ncc3[C@]2(C)CO1 [Example 637, 1-(6-((4bS,8aS)-4b,7,7-trimethyl-2-((4-((R)-pyrrolidin-3-yl)phenyl)amino)-4b,7,8,8a-tetrahydropyrano[3′,4′:4,5]pyrrolo[2,3-d]pyrimidin-9(5H)-yl)pyridin-2-yl)pyrrolidin-2-one]
10 to 100 nM	CN1C[C@H]2C[C@@H]1CN2c1ccc(Nc2ncc3c(n2)N(c2cccc(N4CCCC4=O)n2)[C@H]2CC(C)(C)OC[C@@]32C)cc1F [Example 639, 1-(6-((4bS,8aS)-2-((3-fluoro-4-((1R,4R)-5-methyl-2,5-diazabicyclo[2.2.1]heptan-2-yl)phenyl)amino)-4b,7,7-trimethyl-4b,7,8,8a-tetrahydropyrano[3′,4′:4,5]pyrrolo[2,3-d]pyrimidin-9(5H)-yl)pyridin-2-yl)pyrrolidin-2-one]
100 to 1000 nM	CN1C[C@@H]2C[C@H]1CN2c1ccc(Nc2ncc3c(n2)N(c2cccc(N4CCCC4=O)n2)[C@H]2CC(C)(C)OC[C@@]32C)cc1F [Example 641, 1-(6-((4bS,8aS)-2-((3-fluoro-4-((1S,4S)-5-methyl-2,5-diazabicyclo[2.2.1]heptan-2-yl)phenyl)amino)-4b,7,7-trimethyl-4b,7,8,8a-tetrahydropyrano[3′,4′:4,5]pyrrolo[2,3-d]pyrimidin-9(5H)-yl)pyridin-2-yl)pyrrolidin-2-one]
10 to 100 nM	CN1CC[C@@H](c2ccc(Nc3ncc4c(n3)N(c3cccc(N5CCCC5=O)n3)[C@H]3CC(C)(C)OC[C@@]43C)cc2)C1 [Example 643, 1-(6-((4bS,8aS)-4b,7,7-trimethyl-2-((4-((S)-1-methylpyrrolidin-3-yl)phenyl)amino)-4b,7,8,8a-tetrahydropyrano[3′,4′:4,5]pyrrolo[2,3-d]pyrimidin-9(5H)-yl)pyridin-2-yl)pyrrolidin-2-one]
100 to 1000 nM	CN1C[C@@H]2C[C@H]1CN2c1ccc(Nc2ncc3c(n2)N(c2cccc(C4(O)CC4)n2)[C@H]2CC(C)(C)OC[C@@]32C)cc1 [Example 645, 1-(6-((4bS,8aS)-4b,7,7-trimethyl-2-((4-((1S,4S)-5-methyl-2,5-diazabicyclo[2.2.1]heptan-2-yl)phenyl)amino)-4b,7,8,8a-tetrahydropyrano[3′,4′:4,5]pyrrolo[2,3-d]pyrimidin-9(5H)-yl)pyridin-2-yl)cyclopropan-1-ol]

Continued, compound first:

Structure (SMILES)	IC50
CC1(C)C[C@@H]2N(c3cccc(N4CCOC4=O)n3)c3nc(Nc4ccc([C@H]5CCNC5)cc4)ncc3[C@]2(C)CO1 [Example 609, 3-(6-((4bS,8aS)-4b,7,7-trimethyl-2-((4-((R)-pyrrolidin-3-yl)phenyl)amino)-4b,7,8,8a-tetrahydropyrano[3′,4′:4,5]pyrrolo[2,3-d]pyrimidin-9(5H)-yl)pyridin-2-yl)oxazolidin-2-one]	10 to 100 nM
CN(C)Cc1cccc(N2c3nc(Nc4ccc(C(C)(C)C(=O)O)cc4)ncc3[C@]3(C)COC(C)(C)C[C@H]23)n1 [Example 610, 2-(4-(((4bS,8aS)-9-(6-((dimethylamino)methyl)pyridin-2-yl)-4b,7,7-trimethyl-4b,5,7,8,8a,9-hexahydropyrano[3′,4′:4,5]pyrrolo[2,3-d]pyrimidin-2-yl)amino)phenyl)-2-methylpropanoic acid]	≥ 1000 nM
CC1(C)C[C@@H]2N(c3cccc(N4CCOC4=O)n3)c3nc(Nc4ccc(O[C@H]5CCNC5)cc4)ncc3[C@]2(C)CO1 [Example 612, 3-(6-((4bS,8aS)-4b,7,7-trimethyl-2-((4-(((S)-pyrrolidin-3-yl)oxy)phenyl)amino)-4b,7,8,8a-tetrahydropyrano[3′,4′:4,5]pyrrolo[2,3-d]pyrimidin-9(5H)-yl)pyridin-2-yl)oxazolidin-2-one]	100 to 1000 nM
CN1CC[C@H](Oc2ccc(Nc3ncc4c(n3)N(c3cccc(N5CCOC5=O)n3)[C@H]3CC(C)(C)OC[C@@]43C)cc2)C1 [Example 614, 3-(6-((4bS,8aS)-4b,7,7-trimethyl-2-((4-(((S)-1-methylpyrrolidin-3-yl)oxy)phenyl)amino)-4b,7,8,8a-tetrahydropyrano[3′,4′:4,5]pyrrolo[2,3-d]pyrimidin-9(5H)-yl)pyridin-2-yl)oxazolidin-2-one]	100 to 1000 nM
CC1(C)C[C@@H]2N(c3cccc(N4CCCC4=O)n3)c3nc(Nc4ccc(O[C@@H]5CCNC5)cc4)ncc3[C@]2(C)CO1 [Example 617, 1-(6-((4bS,8aS)-4b,7,7-trimethyl-2-((4-(((R)-pyrrolidin-3-yl)oxy)phenyl)amino)-4b,7,8,8a-tetrahydropyrano[3′,4′:4,5]pyrrolo[2,3-d]pyrimidin-9(5H)-yl)pyridin-2-yl)pyrrolidin-2-one]	100 to 1000 nM
CN1CC[C@H](Oc2ccc(Nc3ncc4c(n3)N(c3cccc(N5CCCC5=O)n3)[C@H]3CC(C)(C)OC[C@@]43C)cc2)C1 [Example 619, 1-(6-((4bS,8aS)-4b,7,7-trimethyl-2-((4-(((S)-1-methylpyrrolidin-3-yl)oxy)phenyl)amino)-4b,7,8,8a-tetrahydropyrano[3′,4′:4,5]pyrrolo[2,3-d]pyrimidin-9(5H)-yl)pyridin-2-yl)pyrrolidin-2-one]	10 to 100 nM
CC1(C)C[C@@H]2N(c3cccc(N4CCCC4=O)n3)c3nc(Nc4ccc(O[C@H]5CCNC5)cc4)ncc3[C@]2(C)CO1 [Example 621, 1-(6-((4bS,8aS)-4b,7,7-trimethyl-2-((4-(((S)-pyrrolidin-3-yl)oxy)phenyl)amino)-4b,7,8,8a-tetrahydropyrano[3′,4′:4,5]pyrrolo[2,3-d]pyrimidin-9(5H)-yl)pyridin-2-yl)pyrrolidin-2-one]	100 to 1000 nM
CC1(C)C[C@@H]2N(c3cccc(N4CCOC4=O)n3)c3nc(Nc4ccc(O[C@@H]5CCNC5)cc4)ncc3[C@]2(C)CO1 [Example 623, 3-(6-((4bS,8aS)-4b,7,7-trimethyl-2-((4-(((R)-pyrrolidin-3-yl)oxy)phenyl)amino)-4b,7,8,8a-tetrahydropyrano[3′,4′:4,5]pyrrolo[2,3-d]pyrimidin-9(5H)-yl)pyridin-2-yl)oxazolidin-2-one]	10 to 100 nM
CN1CC[C@@H](Oc2ccc(Nc3ncc4c(n3)N(c3cccc(N5CCOC5=O)n3)[C@H]3CC(C)(C)OC[C@@]43C)cc2)C1 [Example 625, 3-(6-((4bS,8aS)-4b,7,7-trimethyl-2-((4-(((R)-1-methylpyrrolidin-3-yl)oxy)phenyl)amino)-4b,7,8,8a-tetrahydropyrano[3′,4′:4,5]pyrrolo[2,3-d]pyrimidin-9(5H)-yl)pyridin-2-yl)oxazolidin-2-one]	10 to 100 nM
